This passage reports IC50 results from patent US11466028B2, “Fused 1,4-oxazepines as BET protein degraders” (THE REGENTS OF THE UNIVERSITY OF MICHIGAN, priority 2016, dated 2022).

Holding throughout (format): cell-based
In one assay the test system is MDA-MB-231. Nature of the assay: CellTiter-Glo cell growth inhibition, MDA-MB-231. Conditions: Homo sapiens, MDA-MB-231, 96 h, 4 days, Table 4. The method, then:
(§1) Cell growth inhibitory activity of representative Compounds of the Disclosure was determined using the CellTiter-Glo® Luminescent Cell Viability Assay. Cells were seeded in 384-well white opaque cell culture plates at a density of 2,000 cells/well with serially diluted compounds and incubated at 37° C. in an atmosphere of 95% air and 5% CO2 for 4 days. Cell viability was determined using the CellTiter-Glo® Luminescent Cell Viability Assay Kit (Promega, Madison, Wis.) according to the manufacture's instruction. Briefly, a volume of CellTiter-Glo® Reagent equal to the volume of cell culture medium was added to each well, and then the plates were incubated at room temperature for 10-20 minutes. The luminescent signal was measured using a Tecan Infinite M1000 multimode microplate reader (Tecan, Morrisville, N.C.). The half maximal inhibitory concentration (IC50) was calculated using the GraphPad Prism 5 software (GraphPad Software, La Jolla, Calif.).
Background: In ATP-based viability assays light output follows the ATP content of the culture.

For a further assay, the system named is RS4;11. Briefly: CellTiter-Glo cell growth inhibition, RS4;11. The conditions noted are these: Homo sapiens, RS4-11, 96 h, 4 days, Table 4, read-out: RS-4, 11 IC50. The method, then:
as §1
(§2) Cpd. Nos. 18 and 19 were tested in various leukemia cell lines using the CellTiter-Glo® Luminescent Cell Viability Assay as described in Example 35.

A further assay has as its system MOLM-13. Briefly: CellTiter-Glo cell growth inhibition, MOLM-13. The conditions noted are these: Homo sapiens, MOLM-13, 96 h, 4 days, Table 4, read-out: MOLM-13 IC50. The method, then: as §1, §2

As usually defined, the IC50 is the point on the concentration scale where inhibition reaches its midpoint.

Consider `Cc1nnc2n1-c1sc(C#Cc3cnc(CCCC#Cc4cccc5c4C(=O)N(C4CCC(=O)NC4=O)C5=O)[nH]3)c(Cc3ccccc3)c1CO[C@H]2C` (stereo partly drawn) [Cpd. No. 12, 4-(5-(5-(((S)-3-benzyl-6,9-dimethyl-4H,6H-thieno[2,3-e][1,2,4]triazolo[3,4-c][1,4]oxazepin-2-yl)ethynyl)-1H-imidazol-2-yl)pent-1-yn-1-yl)-2-(2,6-dioxopiperidin-3-yl)isoindoline-1,3-dione], for which the IC50 in the assay with MDA-MB-231, in the assay on RS4;11 and with MOLM-13 was above 1 µM each time.

For the compound `Cc1nnc2n1-c1sc(C#Cc3ccc(CCCCNc4cc(F)cc5c4CN(C4CCC(=O)NC4=O)C5=O)nc3)c(Cc3ccccc3)c1COC2` (stereo not drawn) [Cpd. No. 47, 3-(4-((4-(5-((3-benzyl-9-methyl-4H,6H-thieno[2,3-e][1,2,4]triazolo[3,4-c][1,4]oxazepin-2-yl)ethynyl)pyridin-2-yl)butyl)amino)-6-fluoro-1-oxoisoindolin-2-yl)piperidine-2,6-dione], the IC50 with MDA-MB-231 is 0.0023 µM; in the assay with RS4;11, below 0.0001 µM; with MOLM-13 it was 0.0018 µM.

`Cc1nnc2n1-c1sc(C#Cc3cnn(CCCNc4cccc5c4C(=O)N(C4CCC(=O)NC4=O)C5=O)c3)c(Cc3ccccc3)c1CO[C@H]2C` (stereo partly drawn) [Cpd. No. 10, 4-((3-(4-(((S)-3-benzyl-6,9-dimethyl-4H,6H-thieno[2,3-e][1,2,4]triazolo[3,4-c][1,4]oxazepin-2-yl)ethynyl)-1H-pyrazol-1-yl)propyl)amino)-2-(2,6-dioxopiperidin-3-yl)isoindoline-1,3-dione]: the IC50 in the assay on MDA-MB-231 is 0.034 µM; in the assay on MOLM-13, 0.0026 µM.

Take `Cc1nnc2n1-c1sc(C#Cc3cnn(CCCCOc4cccc5c4C(=O)N(C4CCC(=O)NC4=O)C5=O)c3)c(Cc3ccccc3)c1COC2` (stereo not drawn) [Cpd. No. 45, 4-(4-(4-((3-benzyl-9-methyl-4H,6H-thieno[2,3-e][1,2,4]triazolo[3,4-c][1,4]oxazepin-2-yl)ethynyl)-1H-pyrazol-1-yl)butoxy)-2-(2,6-dioxopiperidin-3-yl) isoindoline-1,3-dione]: the results for the IC50 with MDA-MB-231, with RS4;11 and with MOLM-13 were 0.0032 µM, below 0.0001 µM and 0.0032 µM, respectively.

As to `Cc1nnc2n1-c1sc(C#Cc3cn(CCCC#Cc4cccc5c4CN(C4CCC(=O)NC4=O)C5=O)cn3)c(Cc3ccccc3)c1COC2` (stereo not drawn) [Cpd. No. 50, 3-(4-(5-(4-((3-benzyl-9-methyl-4H,6H-thieno[2,3-e][1,2,4]triazolo[3,4-c][1,4]oxazepin-2-yl)ethynyl)-1H-imidazol-1-yl)pent-1-yn-1-yl)-1-oxoisoindolin-2-yl)piperidine-2,6-dione], the IC50 in the assay with MDA-MB-231 was above 0.1 µM; with RS4;11, above 0.001 µM; with MOLM-13 it was above 0.01 µM.

`Cc1nnc2n1-c1sc(C#Cc3cnn(CCNc4cccc5c4C(=O)N(C4CCC(=O)NC4=O)C5=O)c3)c(Cc3ccccc3)c1CO[C@H]2C` (stereo partly drawn) [Cpd. No. 6, 4-((2-(4-(((S)-3-benzyl-6,9-dimethyl-4H,6H-thieno[2,3-e][1,2,4]triazolo[3,4-c][1,4]oxazepin-2-yl)ethynyl)-1H-pyrazol-1-yl)ethyl)amino)-2-(2,6-dioxopiperidin-3-yl)isoindoline-1,3-dione]: the figures for the 50% inhibitory concentration (IC50) with MDA-MB-231 and in the assay on MOLM-13 were 0.064 µM and 0.06 µM, respectively.

In the case of `Cc1nnc2n1-c1sc(C#Cc3cn(CCCCNc4cccc5c4CN(C4CCC(=O)NC4=O)C5=O)cn3)c(Cc3ccccc3)c1CO[C@H]2C` (stereo partly drawn) [Cpd. No. 13, 3-(4-((4-(4-(((S)-3-benzyl-6,9-dimethyl-4H,6H-thieno[2,3-e][1,2,4]triazolo[3,4-c][1,4]oxazepin-2-yl)ethynyl)-1H-imidazol-1-yl)butyl)amino)-1-oxoisoindolin-2-yl)piperidine-2,6-dione], the figures for the IC50 in the assay with MDA-MB-231, with RS4;11 and in the assay on MOLM-13 were 0.058 µM, 0.0018 µM and 0.02 µM, respectively.

With `Cc1nnc2n1-c1sc(C#CCOCCOCCOCCNc3cccc4c3C(=O)N(C3CCC(=O)NC3=O)C4=O)c(Cc3ccccc3)c1CO[C@H]2C` (stereo partly drawn) [Cpd. No. 4, 4-((2-(2-(2-((3-((S)-3-benzyl-6,9-dimethyl-4H,6H-thieno[2,3-e][1,2,4]triazolo[3,4-c][1,4]oxazepin-2-yl)prop-2-yn-1-yl)oxy)ethoxy)ethoxy)ethyl)amino)-2-(2,6-dioxopiperidin-3-yl)isoindoline-1,3-dione], the IC50 in the assay with MDA-MB-231 worked out at 0.0128 µM; in the assay on MOLM-13, 0.0008 µM.

For the compound `Cc1nnc2n1-c1sc(C#Cc3ccc(CNc4cccc5c4C(=O)N(C4CCC(=O)NC4=O)C5=O)nc3)c(Cc3ccccc3)c1CO[C@H]2C` (stereo partly drawn) [Cpd. No. 8, 4-(((5-(((S)-3-benzyl-6,9-dimethyl-4H,6H-thieno[2,3-e][1,2,4]triazolo[3,4-c][1,4]oxazepin-2-yl)ethynyl)pyridin-2-yl)methyl)amino)-2-(2,6-dioxopiperidin-3-yl) isoindoline-1,3-dione], the half-inhibitory concentration (IC50) worked out at 1.49 µM with MDA-MB-231 and 0.118 µM in the assay with MOLM-13.

Take `Cc1nnc2n1-c1sc(C#CCOCCOCCOCCOCCNc3cccc4c3C(=O)N(C3CCC(=O)NC3=O)C4=O)c(Cc3ccccc3)c1CO[C@H]2C` (stereo partly drawn) [Cpd. No. 5, 4-((15-((S)-3-benzyl-6,9-dimethyl-4H,6H-thieno[2,3-e][1,2,4]triazolo[3,4-c][1,4]oxazepin-2-yl)-3,6,9,12-tetraoxapentadec-14-yn-1-yl)amino)-2-(2,6-dioxopiperidin-3-yl)isoindoline-1,3-dione]: the half-maximal inhibitory concentration (IC50) in the assay with MDA-MB-231 is 0.0061 µM; with MOLM-13, 0.0007 µM.

For `Cc1nnc2n1-c1sc(C#CCOCCOCCOc3cccc4c3C(=O)N(C3CCC(=O)NC3=O)C4=O)c(Cc3ccccc3)c1CO[C@H]2C` (stereo partly drawn) [Cpd. No. 2, 4-(2-(2-((3-((S)-3-benzyl-6,9-dimethyl-4H,6H-thieno-[2,3-e][1,2,4]triazolo[3,4-c][1,4]oxazepin-2-yl)prop-2-yn-1-yl)oxy)ethoxy)ethoxy)-2-(2,6-dioxopiperidin-3-yl)isoindoline-1,3-dione], the results for the IC50 in the assay with MDA-MB-231 and in the assay with MOLM-13 were 0.223 µM and 0.0346 µM, respectively.

In the case of `Cc1nnc2n1-c1sc(C#CCOCCNc3cccc4c3C(=O)N(C3CCC(=O)NC3=O)C4=O)c(Cc3ccccc3)c1CO[C@H]2C` (stereo partly drawn) [Cpd. No. 1, 4-((2-((3-((S)-3-benzyl-6,9-dimethyl-4H,6H-thieno[2,3-e][1,2,4]triazolo[3,4-c][1,4]oxazepin-2-yl)prop-2-yn-1-yl)oxy)ethyl)amino)-2-(2,6-dioxopiperidin-3-yl) isoindoline-1,3-dione], the 50% inhibitory concentration (IC50) in the assay with MDA-MB-231 was 1.7 µM; in the assay on MOLM-13, 0.804 µM.

As for `Cc1nnc2n1-c1sc(C#Cc3cnn(CCOCCNc4cccc5c4C(=O)N(C4CCC(=O)NC4=O)C5=O)c3)c(Cc3ccccc3)c1CO[C@H]2C` (stereo partly drawn) [Cpd. No. 9, 4-((2-(2-(4-(((S)-3-benzyl-6,9-dimethyl-4H,6H-thieno[2,3-e][1,2,4]triazolo[3,4-c][1,4]oxazepin-2-yl)ethynyl)-1H-pyrazol-1-yl)ethoxy)ethyl)amino)-2-(2,6-dioxopiperidin-3-yl)isoindoline-1,3-dione], the half-inhibitory concentration (IC50) with MDA-MB-231 was determined as 0.0047 µM; in the assay with MOLM-13, 0.0011 µM.

Consider `Cc1nnc2n1-c1sc(C#CCOCCOCCNc3cccc4c3C(=O)N(C3CCC(=O)NC3=O)C4=O)c(Cc3ccccc3)c1CO[C@H]2C` (stereo partly drawn) [Cpd. No. 3, 4-((2-(2-((3-((S)-3-benzyl-6,9-dimethyl-4H,6H-thieno[2,3-e][1,2,4]triazolo[3,4-c][1,4]oxazepin-2-yl)prop-2-yn-1-yl)oxy)ethoxy)ethyl)amino)-2-(2,6-dioxopiperidin-3-yl)isoindoline-1,3-dione], for which the IC50 in the assay with MDA-MB-231 was 0.049 µM; in the assay on MOLM-13 it was 0.0026 µM.
